Publication PMC6345978, “The bacterial MrpORP is a novel Mrp/NBP35 protein involved in iron-sulfur biogenesis” (Scientific Reports, 2019)

How the values were obtained:
MrpORP (Dde3202) = target: T1, MrpORP (Dde3202) (Oleidesulfovibrio alaskensis, UniProt Q30WF0); experiment: UV-visible spectroscopy after in vitro Fe-S reconstitution; format: binding; details: anaerobic, DTT, Fe2+ with cysteine/IscS; a second cluster in the Di-Nase domain also contributes
T1 construct: gene Dde_3202; full length, His-tagged (pJF119-3202His), produced in E. coli TG1, isolated aerobically and reconstituted; 43 kDa; [4Fe-4S] proposed between two monomers
T1 sequence (Q30WF0 1-415): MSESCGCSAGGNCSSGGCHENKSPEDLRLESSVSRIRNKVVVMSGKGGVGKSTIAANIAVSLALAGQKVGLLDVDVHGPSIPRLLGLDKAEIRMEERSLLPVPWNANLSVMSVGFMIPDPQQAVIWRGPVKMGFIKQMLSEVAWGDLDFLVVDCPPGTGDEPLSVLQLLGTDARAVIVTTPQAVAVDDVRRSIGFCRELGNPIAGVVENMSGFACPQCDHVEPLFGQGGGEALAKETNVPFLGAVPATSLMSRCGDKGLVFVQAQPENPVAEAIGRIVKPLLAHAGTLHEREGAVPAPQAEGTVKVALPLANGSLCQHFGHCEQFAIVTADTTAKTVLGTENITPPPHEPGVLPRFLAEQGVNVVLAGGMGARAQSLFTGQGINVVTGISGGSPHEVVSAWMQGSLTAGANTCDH

Orp3-Orp4-Orp8 complex = target: T2, Orp3-Orp4-Orp8 complex (Nitratidesulfovibrio vulgaris, UniProt Q72A93+Q72A94); experiment: Fe-S cluster transfer from holo-MrpORP, Ni-NTA separation, UV-visible spectroscopy; format: binding; details: anaerobic, DTT; cluster type from sequence motifs of Orp3 and Orp4, distribution between chains not resolved
T2 construct: gene DVU_2103; His-tagged Orp3 (pBMC6C3::2103His) co-purified with Orp4 and Orp8 from DvH, metal centres removed; with Orp8, dinitrogenase iron-molybdenum cofactor biosynthesis domain protein
T2 sequence (Q72A94 1-287): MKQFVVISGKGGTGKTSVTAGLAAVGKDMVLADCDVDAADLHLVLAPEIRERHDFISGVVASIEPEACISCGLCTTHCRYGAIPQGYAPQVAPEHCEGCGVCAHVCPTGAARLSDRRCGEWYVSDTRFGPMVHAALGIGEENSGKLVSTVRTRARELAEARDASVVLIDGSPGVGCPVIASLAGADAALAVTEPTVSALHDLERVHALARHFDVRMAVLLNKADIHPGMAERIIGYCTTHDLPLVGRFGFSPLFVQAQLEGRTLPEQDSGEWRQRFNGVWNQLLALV
T2 sequence (Q72A93 1-301): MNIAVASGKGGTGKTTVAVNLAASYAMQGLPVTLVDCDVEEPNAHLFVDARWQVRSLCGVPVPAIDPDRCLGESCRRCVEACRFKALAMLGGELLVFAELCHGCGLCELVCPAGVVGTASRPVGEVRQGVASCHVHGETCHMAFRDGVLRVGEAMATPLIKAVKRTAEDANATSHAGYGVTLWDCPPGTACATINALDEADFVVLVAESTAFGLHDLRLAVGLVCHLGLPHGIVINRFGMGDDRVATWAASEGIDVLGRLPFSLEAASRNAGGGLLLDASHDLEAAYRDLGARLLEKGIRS
T2 sequence (Q72A89 1-119 partner): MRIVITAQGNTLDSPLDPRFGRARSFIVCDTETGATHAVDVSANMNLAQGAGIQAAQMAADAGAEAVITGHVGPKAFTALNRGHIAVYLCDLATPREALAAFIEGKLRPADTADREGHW

## [4Fe-4S] cluster
MrpORP (Dde3202)
  A400/A280: 0.3
Orp3-Orp4-Orp8 complex
  A400/A280: 0.42
